Results: publication PMC11597202, “Novel Thiazole-Fused [4,5-g] or [5,4-g]Quinazolin-8-ones and Their Quinazoline Analogues: Synthesis and Biological Evaluation” (Pharmaceuticals, 2024)

Target: T1, JAK3 (Homo sapiens, UniProt P52333)
T1 construct: host or cells: Sf9 insect cells (baculovirus)
T1 sequence (P52333 1-1124): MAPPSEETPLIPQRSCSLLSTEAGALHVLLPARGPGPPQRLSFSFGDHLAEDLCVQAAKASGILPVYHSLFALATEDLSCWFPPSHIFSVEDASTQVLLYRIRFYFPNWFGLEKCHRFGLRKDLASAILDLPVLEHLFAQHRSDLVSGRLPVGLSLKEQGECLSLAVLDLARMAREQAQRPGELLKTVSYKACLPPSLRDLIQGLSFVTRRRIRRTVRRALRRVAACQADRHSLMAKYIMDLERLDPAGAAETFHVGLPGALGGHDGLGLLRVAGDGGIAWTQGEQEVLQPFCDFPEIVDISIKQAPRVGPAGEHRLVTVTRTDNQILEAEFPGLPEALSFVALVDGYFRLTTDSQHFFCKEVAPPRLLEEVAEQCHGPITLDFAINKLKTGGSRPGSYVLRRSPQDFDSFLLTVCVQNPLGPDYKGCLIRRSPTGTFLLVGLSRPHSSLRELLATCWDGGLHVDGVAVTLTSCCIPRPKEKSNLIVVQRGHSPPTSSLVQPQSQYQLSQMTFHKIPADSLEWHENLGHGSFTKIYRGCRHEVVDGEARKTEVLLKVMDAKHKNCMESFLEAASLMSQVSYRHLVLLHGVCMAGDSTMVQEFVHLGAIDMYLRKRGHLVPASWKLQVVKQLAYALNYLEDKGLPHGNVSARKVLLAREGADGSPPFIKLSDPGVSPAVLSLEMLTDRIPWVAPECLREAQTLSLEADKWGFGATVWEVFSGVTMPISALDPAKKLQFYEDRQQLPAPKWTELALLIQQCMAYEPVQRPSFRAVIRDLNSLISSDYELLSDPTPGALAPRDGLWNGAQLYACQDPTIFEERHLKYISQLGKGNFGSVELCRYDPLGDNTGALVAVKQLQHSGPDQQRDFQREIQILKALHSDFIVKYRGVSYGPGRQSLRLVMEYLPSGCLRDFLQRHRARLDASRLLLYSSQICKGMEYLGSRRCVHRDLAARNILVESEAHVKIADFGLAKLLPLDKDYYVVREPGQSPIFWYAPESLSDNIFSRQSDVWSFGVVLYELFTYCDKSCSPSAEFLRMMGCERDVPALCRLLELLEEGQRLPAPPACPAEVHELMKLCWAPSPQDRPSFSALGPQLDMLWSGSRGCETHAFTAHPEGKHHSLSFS
Experiment: ADP-Glo kinase inhibition assay, JAK3
Format: biochemical
Details: for remaining activity at 1 µM: 1 μM compound; for remaining activity at 1 µM / remaining activity at 10 µM: percentage of maximum activity of the DMSO control, mean n = 2, 10 µM ATP, read-out: Residual activity JAK3; for remaining activity at 10 µM: 10 μM compound; for Inhibition of JAK3 kinase activity: span over the tested concentrations (1 and 10 μM)
Method: Kinase enzymatic activities were assayed in 384-well plates using the ADP-Glo^TM assay kit (Promega, Madison, WI, USA) according to the recommendations of the manufacturer. This luminescent ADP detection assay was described by Zegzouti and co-workers and provides a homogeneous and high-throughput screening method to measure kinase activity by quantifying the amount of ADP produced during a kinase reaction. Briefly, the reactions were carried out in a final volume of 6 µL for 30 min at 30 °C in an appropriate kinase buffer (10 mM MgCl2, 1 mM EGTA, 1 mM DTT, 25 mM Tris-HCl pH 7.5, 50 µg/mL heparin), with peptide or protein as substrate in the presence of 10 µM ATP. Peptide substrates were obtained from ProteoGenix (Schiltigheim, France) or Sigma for Histone H1, Poly (L-glutamic acid–L-tyrosine) sodium salt, Casein and MBP. After that, 6 µL of ADP-Glo^TM Kinase Reagent was added to stop the kinase reaction. After an incubation time of 50 min at room temperature (rt), 12 µL of Kinase Detection Reagent was added for one hour at rt. The transmitted signal was measured using the Envision (PerkinElmer, Waltham, MA, USA) microplate luminometer and expressed as Relative Light Units (RLUs). Kinase activities are expressed as percentages of remaining kinase activities detected after treatment with 1 or 10 µM of the tested compounds. The maximum kinase activity was measured in the absence of inhibitor but with an equivalent dose of DMSO (solvent of the tested compounds).
3. Kinase inhibition assays
Kinase enzymatic activities were assayed in 384-well plates using the ADP-GloTM assay kit (Promega, Madison, WI) according to the recommendations of the manufacturer. This luminescent ADP detection assay was described by Zegzouti and co-workers and provides a homogeneous and high-throughput screening method to measure kinase activity by quantifying the amount of ADP produced during a kinase reaction. Briefly, the reactions were carried out in a final volume of 6 µl for 30 min at 30°C in appropriate kinase buffer (10 mM MgCl2, 1 mM EGTA, 1 mM DTT, 25 mM Tris-HCl pH 7.5, 50 µg/mL heparin), with peptide or protein as substrate in the presence of 10 µM ATP. Peptide substrates were obtained from ProteoGenix (Schiltigheim, France) or Sigma for Histone H1, Poly (L-glutamic acid – L-tyrosine) sodium salt, Casein and MBP. After that, 6 µL of ADP-GloTM Kinase Reagent was added to stop the kinase reaction. After an incubation time of 50 min at room temperature (rt), 12 µL of Kinase Detection Reagent was added for 1 h at rt. The transmitted signal was measured using the Envision (PerkinElmer, Waltham, MA) microplate luminometer and expressed in Relative Light Unit (RLU). Kinase activities are expressed in percentages of remaining kinase activities detected after treatment with 1 or 10 µM of the tested compounds. The maximal kinase activity is measured in the absence of inhibitor but with an equivalent dose of DMSO (solvent of the tested compounds).
Table. Human protein kinases tested in the panel: CDK9, HASPIN, PIM1, GSK3b, CK1ε, JAK3, CLK1 […]
Protein Kinase Enzyme Description Substrate1
(Family) (Working concentration)
CDK9/CyclinT Human, recombinant, expressed by Peptide:
(CMGC) baculovirus in Sf9 insect cells […]
CLK1 Human, recombinant, expressed by Peptide: […]
(CMGC) baculovirus in Sf9 insect cells (57.3µM)
DYRK1A Human, recombinant, expressed by Peptide: […]
(CMGC) baculovirus in Sf9 insect cells (10.7µM)
PIM1 Human proto-oncogene, recombinant, Peptide: […]
(CAMK) expressed in bacteria (630 µM)
GSK3 Human, recombinant, expressed by Peptide:
(CMGC) baculovirus in Sf9 insect cells […]pEDEEE 3
HASPIN Human, kinase domain, amino acids 470 to Histone H3 peptide (1-21):
(Other) 798, recombinant, expressed in bacteria […] (8µM)
CK1ε Human, recombinant, expressed by Peptide: […]pAYSITA 2
(CK1) baculovirus in Sf9 insect cells (170µM)
JAK3 Human, recombinant, expressed by Peptide: […]
(TK) baculovirus in Sf9 insect cells (94µM) […]

SMILES	remaining activity at 1 µM	remaining activity at 10 µM	Inhibition of JAK3 kinase activity
COC(=N)c1nc2ccc3ncn(Cc4ccccc4)c(=O)c3c2s1 [Compound I, methyl 8-benzyl-9-oxo-8,9-dihydrothiazolo[5,4-f]quinazoline-2-carbimidate, reference compound]	48%	52%	
COC(=N)c1nc2cc3ncn(Cc4ccccc4)c(=O)c3cc2s1 [Compound 6b, Methyl 7-benzyl-8-oxo-7,8-dihydrothiazolo[5,4-g]quinazoline-2-carbimidate]	92%	73%	
COC(=N)c1nc2c(ccc3c(=O)n(Cc4ccccc4)cnc32)s1 [Compound 6c, Methyl 7-benzyl-6-oxo-6,7-dihydrothiazolo[5,4-h]quinazoline-2-carbimidate]	59%	44%	
COC(=N)c1nc2cc3ncnc(Nc4ccc(OC)cc4F)c3cc2s1 [Compound 15b, Methyl 8-[(2-fluoro-4-methoxyphenyl)amino]thiazolo[5,4-g]quinazoline-2-carbimidate]	68%	60%	around 38%
COC(=N)c1nc2cc3c(Nc4ccc(OC)cc4F)ncnc3cc2s1 [Compound 15a, Methyl 8-[(2-fluoro-4-methoxyphenyl)amino]thiazolo[4,5-g]quinazoline-2-carbimidate]	64%	58%	around 38%
COC(=N)c1nc2cc3c(=O)n(Cc4ccccc4)cnc3cc2s1 [Compound 6a, Methyl 7-benzyl-8-oxo-7,8-dihydrothiazolo[4,5-g]quinazoline-2-carbimidate]	55%	36%	
COC(=N)c1nc2ccc3ncnc(Nc4ccc(OC)cc4F)c3c2s1 [Compound II, methyl 9-[(2-fluoro-4-methoxyphenyl)amino]thiazolo[5,4-f]quinazoline-2-carbimidate, reference compound]	69%	54%	
COC(=N)c1nc2ccc3c(=O)n(Cc4ccccc4)cnc3c2s1 [Compound 6d, Methyl 7-benzyl-6-oxo-6,7-dihydrothiazolo[4,5-h]quinazoline-2-carbimidate]	80%	92%	
